Reference: patent US9862701B2, “Inhibitors of KRAS G12C mutant proteins” (Araxes Pharma LLC, priority 2014, dated 2018)

Target: T1, KRAS G12C 1-169, his-tagged protein, GDP-loaded (Homo sapiens, UniProt P01116, G12C)
T1 construct: KRAS G12C 1-169, his-tagged protein, GDP-loaded
Assay: Biochemical assay: covalent binding to KRAS G12C, analyzed by mass spectrometry
Conditions: percent of KRAS G12C protein covalently bound to test compound; 2 μm protein, room temperature
Procedure: Test compounds were prepared as 10 mM stock solutions in DMSO (Fisher cat# BP-231-100). KRAS G12C 1-169, his-tagged protein, GDP-loaded was diluted to 2 μm in buffer (20 mM Hepes, 150 mM NaCl, 1 mM MgCl2). Compounds were tested for activity as follows:
Compounds were diluted to 50× final test concentration in DMSO in 96-well storage plates. Compound stock solutions were vortexed before use and observed carefully for any sign of precipitation. Dilutions were as follow: • For 100 μM final compound concentration, compounds were diluted to 5000 μM (5 μl 10 mM compound stock+5 μl DMSO and mixed well by pipetting. • For 30 μM final compound concentration, compounds were diluted to 1500 μM (3 μl 10 mM compound stock+17 μl DMSO) and mixed well by pipetting. • For 10 μM final compound concentration, compounds were diluted to 500 μM (2 μl 10 mM compound stock+38 μl DMSO) and mixed well by pipetting. 49 μl of the stock protein solution was added to each well of a 96-well PCR plate (Fisher cat#1423027). 1 μl of the diluted 50× compounds were added to appropriate wells in the PCR plate using 12-channel pipettor. Reactions were mixed carefully and thoroughly by pipetting up/down with a 200 μl multi-channel pipettor. The plate was sealed well with aluminum plate seal, and stored in drawer at room temperature for 24 hrs. 5 μl of 2% formic acid (Fisher cat# A117) in DI H2O was then added to each well followed by mixing with a pipette. The plate was then resealed with aluminum seal and stored on dry ice until analyzed as described below.
The above described assays were analyzed by mass spectrometry according to the following procedure:
The MS instrument is set to positive polarity, 2 GHz resolution, and low mass (1700) mode and allowed to equilibrate for 30 minutes. The instrument is then calibrated, switched to acquisition mode and the appropriate method loaded.
After another 30 minute equilibration time, a blank batch (i.e., buffer) is run to ensure equipment is operating properly. The samples are thawed at 37° C. for 10 minutes, briefly centrifuged, and transfer to the bench top. Wells A1 and H12 are spiked with 1 uL 500 uM internal standard peptide, and the plates centrifuged at 2000×g for 5 minutes. The method is then run and masses of each individual well recorded.
The masses (for which integration data is desired) for each well are pasted into the platemap and exported from the analysis. Masses for the internal standards are exported as well. The data at 50 ppm is extracted for the +19 charge state, and identity of well A1 is assigned using the internal standard spike and integrated. Peak data is exported as a TOF list and the above steps are repeated individually, for the +20, 21, 22, 23, 24, and 25 charge states.

SMILES | Binding %
C=CC(=O)N1CCN(c2ccc(-c3cc(O)ccc3Cl)cc2)CC1 [Compound 1, 1-(4-(2′-chloro-5′-hydroxybiphenyl-4-yl)piperazin-1-yl)prop-2-en-1-one] | ++++ (indicates binding activity greater than 30%)
C=CC(=O)N1CCN(c2ccc(-c3cc(O)cc(Cl)c3)cc2)CC1 [Compound 2, 1-(4-(3′-chloro-5′-hydroxybiphenyl-4-yl)piperazin-1-yl)prop-2-en-1-one] | ++ (indicates binding activity greater than 10% and up to 20%)
C=CC(=O)N1CCN(c2ccc(-c3cc(OC)cc(Cl)c3Cl)cc2)CC1 [Compound 3, 1-(4-(2′,3′-dichloro-5′-methoxybiphenyl-4-yl)piperazin-1-yl)prop-2-en-1-one] | + (indicates binding activity from 5% to 10%)
C=CC(=O)N1CCN(c2ccc(-c3cc(O)cc(Cl)c3Cl)cc2)CC1 [Compound 4, 1-(4-(2′,3′-dichloro-5′-hydroxybiphenyl-4-yl)piperazin-1-yl)prop-2-en-1-one] | +++ (indicates binding activity greater than 20% and up to 30%)
C=CC(=O)N1CCN(c2ccc(-c3cc(O)ccc3CC)cc2)CC1 [Compound 5, 1-(4-(2′-ethyl-5′-hydroxybiphenyl-4-yl)piperazin-1-yl)prop-2-en-1-one] | ++++ (indicates binding activity greater than 30%)
C=CC(=O)N1CCC(n2ccc(-c3cc(O)ccc3Cl)cc2=O)CC1 [Compound 6, 1-(1-acryloylpiperidin-4-yl)-4-(2-chloro-5-hydroxyphenyl)pyridin-2(1H)-one] | ++ (indicates binding activity greater than 10% and up to 20%)
C=CC(=O)N1CCN(c2ncc(-c3cc(O)ccc3Cl)cn2)CC1 [Compound 7, 1-(4-(5-(2-chloro-5-hydroxyphenyl)pyrimidin-2-yl)piperazin-1-yl)prop-2-en-1-one] | ++ (indicates binding activity greater than 10% and up to 20%)
C=CC(=O)N1CCN(c2ccc(-c3cc(O)ccc3Cl)cn2)CC1 [Compound 8, 1-(4-(5-(2-chloro-5-hydroxyphenyl)pyridin-2-yl)piperazin-1-yl)prop-2-en-1-one] | ++ (indicates binding activity greater than 10% and up to 20%)
C=CC(=O)N1CCN(c2ccc(-c3cc(O)ccc3Cl)cc2C#N)CC1 [Compound 9, 4-(4-acryloylpiperazin-1-yl)-2′-chloro-5′-hydroxybiphenyl-3-carbonitrile] | ++++ (indicates binding activity greater than 30%)
C=CC(=O)N1CCN(c2ccc(-c3cc(O)ccc3Cl)c(C(N)=O)c2)CC1 [Compound 10, 4-(4-acryloylpiperazin-1-yl)-2′-chloro-5′-hydroxybiphenyl-2-carboxamide] | +++ (indicates binding activity greater than 20% and up to 30%)
C=CC(=O)N1CCN(c2ccc(-c3cc(O)ccc3Cl)c(C#N)c2)CC1 [Compound 11, 4-(4-acryloylpiperazin-1-yl)-2′-chloro-5′-hydroxybiphenyl-2-carbonitrile] | +++ (indicates binding activity greater than 20% and up to 30%)
C=CC(=O)N1CCC(Cn2ccc(-c3cc(O)ccc3Cl)cc2=O)CC1 [Compound 12, 1-((1-acryloylpiperidin-4-yl)methyl)-4-(2-chloro-5-hydroxyphenyl)pyridin-2(1H)-one] | ++ (indicates binding activity greater than 10% and up to 20%)
C=CC(=O)N1CCC(Cn2ccc(-c3ccccc3C(F)(F)F)cc2=O)CC1 [Compound 13, 1-((1-acryloylpiperidin-4-yl)methyl)-4-(2-(trifluoromethyl)phenyl) pyridin-2(1H)-one] | + (indicates binding activity from 5% to 10%)
C=CC(=O)N1CCN(c2ccc(-c3cc(O)ccc3Cl)cc2C(N)=O)CC1 [Compound 14, 4-(4-acryloylpiperazin-1-yl)-2′-chloro-5′-hydroxybiphenyl-3-carboxamide] | +++ (indicates binding activity greater than 20% and up to 30%)
C=CC(=O)N1CCN(Cc2ccc(-c3ccccc3C(F)(F)F)cc2)CC1 [Compound 15, 1-(4-((2′-(trifluoromethyl)biphenyl-4-yl)methyl)piperazin-1-yl)prop-2-en-1-one] | + (indicates binding activity from 5% to 10%)
C=CC(=O)N1CCN(Cc2ccc(-c3c(C)ccc4[nH]ncc34)cc2)CC1 [Compound 16, 1-(4-(4-(5-methyl-1H-indazol-4-yl)benzyl)piperazin-1-yl)prop-2-en-1-one] | + (indicates binding activity from 5% to 10%)
C=CC(=O)N1CCN(Cc2ccc(-c3cc(O)ccc3Cl)cc2)CC1 [Compound 17, 1-(4-((2′-chloro-5′-hydroxybiphenyl-4-yl)methyl)piperazin-1-yl)prop-2-en-1-one] | ++ (indicates binding activity greater than 10% and up to 20%)
C=CC(=O)N1CCN(Cc2ccc(-c3cc(O)ccc3Cl)c(Cl)c2)CC1 [Compound 18, 1-(4-((2,2′-dichloro-5′-hydroxybiphenyl-4-yl)methyl)piperazin-1-yl)prop-2-en-1-one] | ++ (indicates binding activity greater than 10% and up to 20%)
C=CC(=O)N1CCN(Cc2ccc(-c3c(C)ccc4[nH]ncc34)c(Cl)c2)CC1 [Compound 19, 1-(4-(3-chloro-4-(5-methyl-1H-indazol-4-yl)benzyl)piperazin-1-yl)prop-2-en-1-one] | ++ (indicates binding activity greater than 10% and up to 20%)
C=CC(=O)N1CCN(Cc2ccc(-c3cc(O)ccc3Cl)cc2O)CC1 [Compound 20, 1-(4-((2′-chloro-3,5′-dihydroxybiphenyl-4-yl)methyl)piperazin-1-yl)prop-2-en-1-one] | +++ (indicates binding activity greater than 20% and up to 30%)
C=CC(=O)N1CCN(Cc2ccc(-c3ccccc3C(F)(F)F)cc2O)CC1 [Compound 21, 1-(4-((3-hydroxy-2′-(trifluoromethyl)biphenyl-4-yl)methyl)piperazin-1-yl)prop-2-en-1-one] | + (indicates binding activity from 5% to 10%)
C=CC(=O)N1CCN(c2ccc(-c3c(C)ccc4[nH]ncc34)cc2)CC1 [Compound 22, 1-(4-(4-(5-methyl-1H-indazol-4-yl)phenyl)piperazin-1-yl)prop-2-en-1-one] | + (indicates binding activity from 5% to 10%)
C=CC(=O)N1CCN(c2ccc(-c3ccc(O)cc3Cl)cc2)CC1 [Compound 23, 1-(4-(2′-chloro-4′-hydroxybiphenyl-4-yl)piperazin-1-yl)prop-2-en-1-one] | + (indicates binding activity from 5% to 10%)
C=CC(=O)N1CCN(c2ccc(-c3cc(O)ccc3Cl)c3cn[nH]c23)CC1 [Compound 24, 1-(4-(4-(2-chloro-5-hydroxyphenyl)-1H-indazol-7-yl)piperazin-1-yl)prop-2-en-1-one] | ++++ (indicates binding activity greater than 30%)
C=CC(=O)N1CCN(c2ccc(-c3c(O)cccc3F)cc2)CC1 [Compound 25, 1-(4-(2′-fluoro-6′-hydroxybiphenyl-4-yl)piperazin-1-yl)prop-2-en-1-one] | + (indicates binding activity from 5% to 10%)
C=CC(=O)N1CCN(c2ccc(-c3c(C)ccc4[nH]ncc34)c3cn[nH]c23)CC1 [Compound 26, 1-(4-(5′-methyl-1H,1′H-4,4′-biindazol-7-yl)piperazin-1-yl)prop-2-en-1-one] | + (indicates binding activity from 5% to 10%)
